Test results published in patent EP1283044A2, “Injectable ready-to-use solutions containing an antitumor anthracycline glycoside” (Pharmacia Italia S.p.A., priority 1986, dated 1988).
Counter-ions that a name gives are not always drawn.

Tests used:
[1] = Shelf-life (t90%) forecast, Arrhenius approach, doxorubicin.HCl 2 mg/ml pH 3.0 in 0.9% sodium chloride; type: physicochemical; conditions: 2 mg/ml pH 3.0 solution in 0.9% NaCl; for K x 10^3: calculated from Arrhenius equation; for t90%: calculated shelf-life; for Kobs x 10^3: observed
Method: (§1) The solution was filtered through a 0.22 µm microporous membrane under nitrogen pressure. 5.0 ml aliquots were stored at: • (a) 60°C for 4 days, • (b) 55°C for 11 days, • (c) 45°C for 21 days, and • (d) 35°C for 28 days in glass vials of glass type I, 8ml top capacity vial, Teflon-faced chlorobutyl rubber bung, aluminium seal. At predetermined times the vials were analysed for doxorubicin.HCl assay and pH.
(§2) The Arrhenius equation for the degradation process was calculated from the Kobs obtained from the different temperatures taken in account for the testing (Table 28). Applying the equation, the rate constants for the pseudo-first order reactions at 4°C, 8°C, 15°C and 27°C were calculated, together with the expected shelf-life (t90%) at these temperatures.

[2] = Shelf-life (t90%) forecast, Arrhenius approach, doxorubicin.HCl 2 mg/ml pH 3.0 in 5% dextrose; type: physicochemical; conditions: 2 mg/ml pH 3.0 solution in 5% dextrose; for t90%: calculated shelf-life; for Kobs x 10^3: observed
Method: as §1, with “for 8” for “for 4”, “for 28” for “for 11”, “for 28” for “for 21”, “seal.” for “seal. At predetermined times the vials were analysed for doxorubicin.HCl assay and pH.”
as §2, with “30).” for “28).”

[3] = Long term stability of doxorubicin.HCl 2 mg/ml solution in 0.9% sodium chloride at pH 3.7; conditions: batch TF/23256, 0.9% sodium chloride
[4] = Shelf-life (t90%) forecast, Arrhenius approach, doxorubicin.HCl 2 mg/ml sterile water solution pH 3.0; type: physicochemical; conditions: for K x 10^3: 2 mg/ml sterile water solution pH 3.0, calculated from Arrhenius equation; for t90%: 2 mg/ml sterile water solution pH 3.0, calculated shelf-life; for Kobs x 10^3: 2 mg/ml sterile water solution pH 3.0, observed
Method: as §1, with “55°C” for “60°C”, “21” for “4”, “45°C and 35°C” for “55°C”, “28” for “11 days, • (c) 45°C for 21”, “(c) 27°C” for “(d) 35°C”, “90 days.” for “28 days”
as §2, with “8).” for “28).”, “(t90%)at” for “(t90%) at”

[5] = pH-stability profile at 55°C of epirubicin.HCl 2 mg/ml solutions in Water for Injection, 0.9% saline or 5% dextrose: HPLC assay, pH, Kobs; type: physicochemical
Method: Each solution was filtered through a 0.22 µm microporous membrane under nitrogen pressure. 5.0 ml of each solution were stored at 55°C in glass vials of glass type I, 8ml top capacity vial, Teflon (Trade Mark)-faced chlorobutyl rubber bung, aluminium seal.
The doxorubicin.HCl assays are the mean of three independent determinations performed by the US Pharmacopoeia (USP high performance liquid chromatography (HPLC) method (USP XXI)).
Solutions of epirubicin were prepared in the same fashion as the corresponding doxorubicin solutions hereinbefore. They were then tested for stability in the same way. The results are presented in Tables 32 to 61 below and illustrated in Figures 4 to 6.

COc1cccc2c1C(=O)c1c(O)c3c(c(O)c1C2=O)C[C@@](O)(C(=O)CO)C[C@@H]3O[C@H]1C[C@H](N)[C@H](O)[C@H](C)O1 [Doxorubicin·HCl, doxorubicin]
K x 10^3 ([1]; 4°C): 0.017 1/days | K x 10^3 ([1]; 8°C): 0.037 1/days | K x 10^3 ([1]; 15°C): 0.137 1/days | K x 10^3 ([1]; 27°C): 1.112 1/days | t90% ([1]; 4°C): 6,166 days | t90% ([1]; 8°C): 2,838 days | t90% ([1]; 15°C): 768 days | t90% ([1]; 27°C): 94 days | Kobs x 10^3 ([1]; 35°C): 3.89 1/days | Kobs x 10^3 ([1]; 45°C): 21.61 1/days | Kobs x 10^3 ([1]; 55°C): 75.90 1/days | Kobs x 10^3 ([1]; 60°C): 164.9 1/days | t90% ([2]; 4°C): 3,218 days | t90% ([2]; 8°C): 1,628 days | t90% ([2]; 15°C): 516 days | t90% ([2]; 27°C): 82 days | Kobs x 10^3 ([2]; 35°C): 4.190 1/days | Kobs x 10^3 ([2]; 45°C): 14.55 1/days | Kobs x 10^3 ([2]; 55°C): 58.11 1/days | Kobs x 10^3 ([2]; 60°C): 102.6 1/days | % stability ([3]; pH 3.7, 8°C, 0 months): 100.0% | Doxorubicin.HCl assay ([3]; pH 3.7, 8°C, 0 months): 2.064 mg/mL | pH ([3]; pH 3.7, 8°C, 0 months): 3.7 | % stability ([3]; pH 3.7, 8°C, 1 month): 99.3% | Doxorubicin.HCl assay ([3]; pH 3.7, 8°C, 1 month): 2.054 mg/mL | pH ([3]; pH 3.7, 8°C, 1 month): 3.7 | % stability ([3]; pH 3.7, 8°C, 3 months): 100.0% | Doxorubicin.HCl assay ([3]; pH 3.7, 8°C, 3 months): 2.063 mg/mL | pH ([3]; pH 3.7, 8°C, 3 months): 3.6 | % stability ([3]; pH 3.7, 15°C, 0 months): 100.0% | Doxorubicin.HCl assay ([3]; pH 3.7, 15°C, 0 months): 2.064 mg/mL | pH ([3]; pH 3.7, 15°C, 0 months): 3.7 | % stability ([3]; pH 3.7, 15°C, 1 month): 100.5% | Doxorubicin.HCl assay ([3]; pH 3.7, 15°C, 1 month): 2.073 mg/mL | pH ([3]; pH 3.7, 15°C, 1 month): 3.7 | % stability ([3]; pH 3.7, 15°C, 3 months): 98.4% | Doxorubicin.HCl assay ([3]; pH 3.7, 15°C, 3 months): 2.029 mg/mL | pH ([3]; pH 3.7, 15°C, 3 months): 3.6 | % stability ([3]; pH 3.7, 27°C, 0 months): 100.0% | Doxorubicin.HCl assay ([3]; pH 3.7, 27°C, 0 months): 2.064 mg/mL | pH ([3]; pH 3.7, 27°C, 0 months): 3.7 | % stability ([3]; pH 3.7, 27°C, 1 month): 91.5% | Doxorubicin.HCl assay ([3]; pH 3.7, 27°C, 1 month): 1.888 mg/mL | pH ([3]; pH 3.7, 27°C, 1 month): 3.6 | % stability ([3]; pH 3.7, 27°C, 3 months): 74.9% | pH ([3]; pH 3.7, 27°C, 3 months): 3.3 | K x 10^3 ([4]; 4°C): 0.019 1/days | K x 10^3 ([4]; 8°C): 0.038 1/days | K x 10^3 ([4]; 15°C): 0.130 1/days | K x 10^3 ([4]; 27°C): 0.918 1/days | t90% ([4]; 4°C): 5,652 days | t90% ([4]; 8°C): 2,745 days | t90% ([4]; 15°C): 810 days | t90% ([4]; 27°C): 115 days | Kobs x 10^3 ([4]; 27°C): 0.850 1/days | Kobs x 10^3 ([4]; 35°C): 3.506 1/days | Kobs x 10^3 ([4]; 45°C): 12.790 1/days | Kobs x 10^3 ([4]; 55°C): 49.340 1/days

COc1cccc2c1C(=O)c1c(O)c3c(c(O)c1C2=O)C[C@@](O)(C(=O)CO)C[C@@H]3O[C@H]1C[C@H](N)[C@@H](O)[C@H](C)O1 [epirubicin.HCl, 4'-epi-doxorubicin]
Kobs x 10^3 ([5]; 2 mg/ml in 0.9% Sodium Chloride Injection, Acetate (I = 0.05) pH 4.0, 55°C): 124.8 1/days | Kobs x 10^3 ([5]; 2 mg/ml in 0.9% Sodium Chloride Injection, Acetate (I= 0.05) pH 5.0, 55°C): 318.1 1/days | Kobs x 10^3 ([5]; 2 mg/ml in 0.9% Sodium Chloride Injection, Formate (I = 0.05) pH 3.5, 55°C): 124.5 1/days | Kobs x 10^3 ([5]; 2 mg/ml in 0.9% Sodium Chloride Injection, Glycine-HCl (I = 0.05) pH 2.0, 55°C): 168.9 1/days | Kobs x 10^3 ([5]; 2 mg/ml in 0.9% Sodium Chloride Injection, Glycine-HCl (I = 0.05) pH 2.5, 55°C): 97.3 1/days | Kobs x 10^3 ([5]; 2 mg/ml in 0.9% Sodium Chloride Injection, Glycine-HCl (I = 0.05) pH 3.0, 55°C): 84.8 1/days | Kobs x 10^3 ([5]; 2 mg/ml in 0.9% Sodium Chloride Injection, HCl-KCl (I = 0.05) pH 1.5, 55°C): 343.2 1/days | Kobs x 10^3 ([5]; 2 mg/ml in 5% Dextrose solution, Acetate (I = 0.05) pH 4.0, 55°C): 150.6 1/days | Kobs x 10^3 ([5]; 2 mg/ml in 5% Dextrose solution, Acetate (I = 0.05) pH 5.0, 55°C): 225.7 1/days | Kobs x 10^3 ([5]; 2 mg/ml in 5% Dextrose solution, Formate (I = 0.05) pH 3.5, 55°C): 89.1 1/days | Kobs x 10^3 ([5]; 2 mg/ml in 5% Dextrose solution, Glycine-HCl (I = 0.05) pH 2.0, 55°C): 106.9 1/days | Kobs x 10^3 ([5]; 2 mg/ml in 5% Dextrose solution, Glycine-HCl (I = 0.05) pH 2.5, 55°C): 81.1 1/days | Kobs x 10^3 ([5]; 2 mg/ml in 5% Dextrose solution, Glycine-HCl (I = 0.05) pH 3.0, 55°C): 70.9 1/days | Kobs x 10^3 ([5]; 2 mg/ml in 5% Dextrose solution, HCl-KCl (I = 0.05) pH 1.5, 55°C): 288.1 1/days | Kobs x 10^3 ([5]; 2 mg/ml in Water for Injection, Acetate (I = 0.05) pH 4.0, 55°C): 376.7 1/days | Kobs x 10^3 ([5]; 2 mg/ml in Water for Injection, Acetate (I = 0.05) pH 5.0, 55°C): 430.4 1/days | Kobs x 10^3 ([5]; 2 mg/ml in Water for Injection, Fermate (I = 0.05) pH 3.5, 55°C): 125.4 1/days | Kobs x 10^3 ([5]; 2 mg/ml in Water for Injection, Glycine-HCl (I = 0.05) pH 2.0, 55°C): 79.0 1/days | Kobs x 10^3 ([5]; 2 mg/ml in Water for Injection, Glycine-HCl (I = 0.05) pH 2.5, 55°C): 55.1 1/days | Kobs x 10^3 ([5]; 2 mg/ml in Water for Injection, Glycine-HCl (I = 0.05) pH 3.0, 55°C): 66.8 1/days
